Patent US7425548B2, “Materials and methods for immune system stimulation” (Variety Chidren's Hospital, priority 2004, dated 2008)

What was measured:
[1] = test system: C3a des Arg (alternative pathway); test: Complement activation pathway EIA in normal blood; design: species or system human; settings: RR1 0-100 μg/ml, 24 hours
Description: Normal blood samples from healthy volunteers were incubated with RR1 (0-100 μg) for 24 hours. Human complement C3a des Arg and C4a des Arg correlate EIA Kits (Assay Design Inc., Ann Arbor, Mich.) were used for quantification of classic and alternative pathway of complement activation using an ELISA procedure. ***p<0.001.
Complement activation pathway. Human complement C3a des Arg and C4a des Arg correlate-EIA Kits (ASSAY DESIGN Inc., Ann Arbor, Mich.) were used to measure the cleaved complement components (C3a des Arg and C4a des Arg) according to the manufacturer's protocols. In brief, 1 ml normal blood, drawn from healthy volunteer was incubated with 0-100 μg/ml of RR1 in a CO2 incubator at 37° C. for 24 hours. The treated blood samples were centrifuged at 2000×g at 4° C. and 225 μl of complement reagent ‘A’ was added to an equal volume of the sample supernatant and vortexed thoroughly. To this mixture, 50 μl of 10 N HCl was added, vortexed again and incubated at room temperature for 1 hour. […] The plate was incubated at 37° C. for 1 hour without shaking, added 50 μl of stop solution and absorbance was taken at 405 nm with a reference wavelength of 570 nm in a BIO-RAD Bench top plate reader.

[2] = test system: monocytes isolated from peripheral blood mononuclear cells; test: NO synthesis in monocytes; assay type: cell-based
Text: (§1) NO levels are also reported to play an important role in the modulation of Th cell differentiation and polarization. Yamasaki et al. (Yamasaki, A. et al. Yonago Acta Medica, 1998, 44:7-15) and Taylor-Robinson et al. (Taylor-Robinson, A. W. et al. Eur. J. Immunol., 1994, 24:980-984) reported an inhibitory role of NO on Th1 cytokines while Bauer et al. (Bauer, H. et al., Immunol, 1997, 90:205-211) reported the same for Th1 as well as Th2 cytokines by NO from activated T cells. […] The enzyme iNOS produced a high output of NO from macrophages upon stimulation. […] The absence of iNOS induction by RR1 supports the conclusion that there is an insignificant increase in the production of NO. […] IFN-α, IFN-γ and TNF-α are known up-regulators of NO synthesis (Shin, J. Y. et al. Immunopharmcol. Immunotoxicol., 2002, 24:469-482; Hirazumi, A. and Furusawa, E. Phytother Res., 1999, 13:380-387).

[3] = test system: human monocyte cell line THP-1; test: NO synthesis in monocyte cell line; assay type: cell-based
Text: as §1

RAW264.7 macrophages = test: Nonopsonized binding of FITC-zymosan A bioparticles; assay type: cell-based, mouse; settings: 1000 μg/ml RR1, 4° C.
Description: RR1 inhibits the binding and internalization of nonopsonic binding of zymosan A bioparticles in a dose-dependent manner. The cells were incubated with RR1 for 1 hour on ice (4° C.) in DMEM containing 0.5% FBS followed by zymosan A biparticles for 1 hour on ice. The cells were warmed for 7 minutes at 37° C. for internalization of zymosan A bioparticles and intracellular FITC fluorescence analyzed in a Coulter Elite flow cytometer.
Nonopsonized binding of RR1. To determine the inhibitory effect of RR1 on non-opsonized binding of zymosan A bioparticles, mouse monocyte/macrophage cells (0.5×10^6) were incubated with 0, 100, 500 and 1000 μg/ml of RR1 at 4° C. to prevent the local release of opsonins including complement (Ezekowitz, R. A. et al. J. Clin. Invest., 1985, 76:2368-2376; Brown, G. D. et al. J. Expt. Med., 2002, 196:407-412). After 1 hour incubation on ice, the cells were washed three times with pre-chilled culture medium, added FITC-conjugated zymosan A particles at a ratio of 25 particles/cell and kept on ice for another hour. The cells were washed with PBS twice and incubated in DMEM at 37° C. for 30 minutes in a CO2 incubator. The unbound zymosan particles were removed by extensive washing with medium and the intracellular fluorescence of the zymosan-FITC analyzed in a Coulter Elite flow cytometer.

RAW 264.7 cells = test: RR1-induced TNF-α synthesis with and without CAPE, ELISA; assay type: cell-based, mouse; settings: RAW 264.7, RR1 0-1000 μg/ml
Description: The cells were pre-incubated with 10 μg/ml CAPE for 1 hour in 0.5% FBS containing DMEM medium and replaced with medium containing RR1 at varying concentrations for 4 hour at 37° C. The medium was analyzed for secreted TNF-α using ELISA protocol.
RR1-induced TNF-α synthesis. RAW 264.7 cells (0.5×10^6/ml) were plated on 6-well plates with DMEM medium containing 0.5% FBS (starvation). Once the cells were attached, medium was replaced, RR1 was added at 0, 100, 500 and 1000 μg/ml doses and incubated at 37° C. for 24 hours. The medium was analyzed for the secreted TNF-α using the ELISA kit (BD BIOSCIENCES kit, San Jose, Calif.) based on the manufacturer's protocol.
To determine the effect of NF-κB inhibitor CAPE on TNF-α synthesis, RAW 264.7 cells were treated with 10 μg/ml of CAPE for 1 hour at 37° C. followed by treatment with RR1 (0-1000 μg/ml) overnight in the incubator. The secreted TNF-α in the medium was analyzed using ELISA (BD BIOSCIENCES, San Jose, Calif.).

[4] = test system: HEK293 cells transfected with TLR2; test: TLR signaling, IL-8 ELISA; assay type: cell-based, human; settings: HEK/TLR2, 24 hours
Description: (§2) TLR signaling. To determine the involvement of TLR signaling, parental HEK293 as well as HEK293 cells transfected with human TLR2, TLR6, TLR2/6 or TLR4/CD14/MD2 genes (cloned into pDUO plasmid), were used. These cells (0.5×10^6/ml) were incubated with 0-100 μg/ml of RR1 for 24 hours. Since these cells produce very low level of TNF-α and detectable levels of IL-8 upon activation, IL-8 secreted into the medium was analyzed using ELISA procedure. Incidentally, the IL-8 synthesis is also under the control of the transcription factor NF-κB.

parental HEK293 cells = test: TLR signaling, IL-8 ELISA; assay type: cell-based, human; settings: parental HEK, RR1 0-100 μg/ml, 24 hours
Description: as §2

(1,4)-α-D-glucan [RR1] was tested, and the “levels of C3a des Arg of the alternative pathway” value [1] was “step-wise increase”, the “NO levels with RR1 treatment” value [2] was “did not induce any higher levels of NO” and the “NO levels with RR1 treatment” value [3] was “did not induce any higher levels of NO”. For the same substance, the “inhibition of nonopsonic binding of FITC-zymosan A bioparticles (fluorescence intensity)” value (RAW264.7 macrophages) was “about 65%”, the “synthesis of TNF-α” value (RAW 264.7 cells) was “dose-dependent increase” and the IL-8 production [4] was “did not induce IL-8 production”. For the same substance, the IL-8 production (parental HEK293 cells) was “did not induce IL-8 production”.
